Measurements published in US20250195513A1, “DEGRADATION OF IRAK4 BY CONJUGATION OF IRAK4 INHIBITORS WITH E3 LIGASE LIGAND AND METHODS OF USE” (BeiGene, Ltd., priority 2022, published 2025).

How the values were obtained:
IRAK4 [1] = molecular target: T1, IRAK4 (Homo sapiens, UniProt Q9NWZ3); assay: IRAK4 Degradation Assay with Human Serum (Karpas299, HTRF/TR-FRET); format: cell-based; conditions: Karpas-299 in human serum, 24 hrs treatment; for DC50: read-out: IRAK4 degradtion with human serum assay DC50; for Dmax: read-out: IRAK4 degradtion with human serum assay Dmax (%)
T1 construct: endogenous in cells; host or cells: Karpas299
T1 sequence (Q9NWZ3 1-460): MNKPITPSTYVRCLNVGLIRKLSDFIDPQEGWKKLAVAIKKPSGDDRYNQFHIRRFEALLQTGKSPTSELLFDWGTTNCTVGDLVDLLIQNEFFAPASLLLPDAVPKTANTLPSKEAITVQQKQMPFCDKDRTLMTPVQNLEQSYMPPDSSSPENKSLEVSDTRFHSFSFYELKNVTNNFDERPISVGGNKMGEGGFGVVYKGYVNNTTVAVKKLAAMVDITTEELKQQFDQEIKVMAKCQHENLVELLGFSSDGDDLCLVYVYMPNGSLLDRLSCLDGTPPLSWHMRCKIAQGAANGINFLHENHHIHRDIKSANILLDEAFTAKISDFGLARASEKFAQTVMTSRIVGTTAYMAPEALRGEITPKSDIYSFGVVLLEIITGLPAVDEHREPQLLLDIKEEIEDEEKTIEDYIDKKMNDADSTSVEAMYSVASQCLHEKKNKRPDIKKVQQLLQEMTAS
Method in brief: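 Remaining IRAK4 measured by TR-FRET immunoassay on lysates of Karpas299 cells exposed 24 h to compound dilution series in human serum AB. DC50 derived from a Hill-slope fit of % degradation versus concentration.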

IRAK4 [2] = molecular target: T1, IRAK4; assay: IRAK4 Degradation Assay (Karpas299, HTRF/TR-FRET); format: cell-based; conditions: Karpas-299 cells; for Dmax: maximum percentage of degradation
Method in brief: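 Compound potency as DC50 (IC50) came from four-parameter fits of percent IRAK4 degradation. IRAK4 was measured by HTRF (665/620 nm) in lysates of Karpas299 cells seeded at 0.2 million per well. Cells had been treated with compound dilutions for 5 or 24 h.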

[3] = 24 h treatment, read-out: IRAK4 in Karpas-299 (24 h) Dmax (%)
[4] = 24 h treatment, read-out: IRAK4 in Karpas-299 (24 h) DC50
[5] = 5 h treatment, read-out: IRAK4 in Karpas-299 (5 h) Dmax (%)
[6] = 5 h treatment, read-out: IRAK4 in Karpas-299 (5 h) DC50

DC50 (IRAK4 [1]) | Dmax (IRAK4 [1]) | Dmax (IRAK4 [2]; [3]) | DC50 (IRAK4 [2]; [4]) | Dmax (IRAK4 [2]; [5]) | DC50 (IRAK4 [2]; [6]) | SMILES
126 nM | 97% | 96% | 0.7 nM | – | – | COC[C@H]1CN(C(=O)C2CN(c3cc(F)c([C@H]4CCC(=O)NC4=O)c(F)c3)C2)CCN1[C@H]1CC[C@H](n2cc3cc(NC(=O)c4ccc5cc(C#N)cnn45)c(C(C)(C)O)cc3n2)CC1 [Example 184, 3-cyano-N-(2-((1R,4r)-4-((R)-4-(1-(4-((R)-2,6-dioxopiperidin-3-yl)-3,5-difluorophenyl)azetidine-3-carbonyl)-2-(methoxymethyl)piperazin-1-yl)cyclohexyl)-6-(2-hydroxypropan-2-yl)-2H-indazol-5-yl)pyrrolo[1,2-b]pyridazine-7-carboxamide]
35 nM | 95% | 98% | 0.3 nM | – | – | COC[C@@H]1CN(C(=O)C2CN(c3cc(F)c([C@H]4CCC(=O)NC4=O)c(F)c3)C2)CCN1[C@H]1CC[C@H](n2cc3cc(NC(=O)c4ccc5cc(C#N)cnn45)c(C(C)(C)O)cc3n2)CC1 [Example 183, 3-cyano-N-(2-((1S,4r)-4-((S)-4-(1-(4-((R)-2,6-dioxopiperidin-3-yl)-3,5-difluorophenyl)azetidine-3-carbonyl)-2-(methoxymethyl)piperazin-1-yl)cyclohexyl)-6-(2-hydroxypropan-2-yl)-2H-indazol-5-yl)pyrrolo[1,2-b]pyridazine-7-carboxamide]
7.1 nM | 100% | 98% | 1.1 nM | 93% | 1.6 nM | CC(C)(O)c1cc2nn([C@H]3CC[C@H](N4CCN(CCNc5cc(F)c(C6CCC(=O)NC6=O)c(F)c5)CC4)CC3)cc2cc1NC(=O)c1ccc2cc(C#N)cnn12 (some centres unmarked) [Example 135, 3-cyano-N-(2-((1r,4r)-4-(4-(2-((4-(2,6-dioxopiperidin-3-yl)-3,5-difluorophenyl)amino)ethyl)piperazin-1-yl)cyclohexyl)-6-(2-hydroxypropan-2-yl)-2H-indazol-5-yl)pyrrolo[1,2-b]pyridazine-7-carboxamide]
25 nM | 98% | 96% | 4.4 nM | 97% | 6.7 nM | CC(C)(O)c1cc2nn([C@H]3CC[C@H](N4CCN(C5CCN(c6ccc(C7CCC(=O)NC7=O)nc6)CC5)CC4)CC3)cc2cc1NC(=O)c1ccc2cc(C#N)cnn12 (some centres unmarked) [Example 254, 3-cyano-N-(2-((1r,4r)-4-(4-(1-(6-(2,6-dioxopiperidin-3-yl)pyridin-3-yl)piperidin-4-yl)piperazin-1-yl)cyclohexyl)-6-(2-hydroxypropan-2-yl)-2H-indazol-5-yl)pyrrolo[1,2-b]pyridazine-7-carboxamide]
24 nM | 96% | 98% | 0.3 nM | – | – | COC[C@H]1CN([C@H]2CC[C@H](n3cc4cc(NC(=O)c5ccc6cc(C#N)cnn56)c(C(C)(C)O)cc4n3)CC2)CCN1C(=O)[C@@H]1CCN(c2cc(F)c([C@H]3CCC(=O)NC3=O)c(F)c2)C1 [Example 313, 3-cyano-N-(2-((1R,4r)-4-((R)-4-((R)-1-(4-((R)-2,6-dioxopiperidin-3-yl)-3,5-difluorophenyl)pyrrolidine-3-carbonyl)-3-(methoxymethyl)piperazin-1-yl)cyclohexyl)-6-(2-hydroxypropan-2-yl)-2H-indazol-5-yl)pyrrolo[1,2-b]pyridazine-7-carboxamide]
75 nM | 73% | 95% | 0.4 nM | – | – | N#Cc1cnn2c(C(=O)Nc3cc4cn([C@H]5CC[C@H](N6CCN(C(=O)C7CN(c8cc(F)c([C@H]9CCC(=O)NC9=O)c(F)c8)C7)CC6)CC5)nc4c4c3OCO4)ccc2c1 [Example 355]
3.5 nM | 88% | 95% | 0.8 nM | – | – | CC(C)(O)c1cc2nn([C@H]3CC[C@H](N4CCN(CC5CCN(c6ccc7c(c6)CN(C6CCC(=O)NC6=O)C7=O)CC5)CC4)CC3)cc2cc1NC(=O)c1ccc2cc(C#N)cnn12 (some centres unmarked) [Example 353, 3-cyano-N-(2-((1r,4r)-4-(4-((1-(2-(2,6-dioxopiperidin-3-yl)-1-oxoisoindolin-5-yl)piperidin-4-yl)methyl)piperazin-1-yl)cyclohexyl)-6-(2-hydroxypropan-2-yl)-2H-indazol-5-yl)pyrrolo[1,2-b]pyridazine-7-carboxamide]
14 nM | 92% | 95% | 1.9 nM | – | – | CC(C)(O)c1cc2nn([C@H]3CC[C@H](N4CCN(C[C@H]5CCN(c6ccc7c(c6)C(=O)N(C6CCC(=O)NC6=O)C7=O)C5)CC4)CC3)cc2cc1NC(=O)c1ccc2cc(C#N)cnn12 (stereo partly drawn) [Example 432, 3-cyano-N-(2-((1R,4r)-4-(4-(((3R)-1-(2-(2,6-dioxopiperidin-3-yl)-1,3-dioxoisoindolin-5-yl)pyrrolidin-3-yl)methyl)piperazin-1-yl)cyclohexyl)-6-(2-hydroxypropan-2-yl)-2H-indazol-5-yl)pyrrolo[1,2-b]pyridazine-7-carboxamide]
35 nM | 95% | 97% | 1.6 nM | – | – | COC[C@H]1CN([C@H]2CC[C@H](n3cc4cc(NC(=O)c5ccc6cc(C#N)cnn56)c(C(C)(C)O)cc4n3)CC2)CCN1C(=O)[C@@H]1CCN(c2cc(F)c(N3CCC(=O)NC3=O)c(F)c2)C1 [Example 316, 3-cyano-N-(2-((1R,4r)-4-((R)-4-((R)-1-(4-(2,4-dioxotetrahydropyrimidin-1(2H)-yl)-3,5-difluorophenyl)pyrrolidine-3-carbonyl)-3-(methoxymethyl)piperazin-1-yl)cyclohexyl)-6-(2-hydroxypropan-2-yl)-2H-indazol-5-yl)pyrrolo[1,2-b]pyridazine-7-carboxamide]
33 nM | 94% | 93% | 2.9 nM | – | – | CC(C)(O)c1cc2nn(C3CCC4(CC3)CCN(C3CN(c5cc(F)c([C@H]6CCC(=O)NC6=O)c(F)c5)C3)CC4)cc2cc1NC(=O)c1ccc2cc(C#N)cnn12 [Example 428, (R)-3-cyano-N-(2-(3-(1-(4-(2,6-dioxopiperidin-3-yl)-3,5-difluorophenyl)azetidin-3-yl)-3-azaspiro[5.5]undecan-9-yl)-6-(2-hydroxypropan-2-yl)-2H-indazol-5-yl)pyrrolo[1,2-b]pyridazine-7-carboxamide]
4.2 nM | 103% | 97% | 2.4 nM | – | – | CC(C)(O)c1cc2nn([C@H]3CC[C@H](N4C[C@@H]5CN(CC6CN(c7cc(F)c(C8CCC(=O)NC8=O)c(F)c7)C6)C[C@H]5C4)CC3)cc2cc1NC(=O)c1ccc2cc(C#N)cnn12 (stereo partly drawn) [Example 359, 3-cyano-N-(2-((1S,4r)-4-((3aS,6aS)-5-((1-(4-((R)-2,6-dioxopiperidin-3-yl)-3,5-difluorophenyl)azetidin-3-yl)methyl)hexahydropyrrolo[3,4-c]pyrrol-2(1H)-yl)cyclohexyl)-6-(2-hydroxypropan-2-yl)-2H-indazol-5-yl)pyrrolo[1,2-b]pyridazine-7-carboxamide]
8.9 nM | 99% | 97% | 1.5 nM | – | – | C[C@H]1CN(C2CN(c3cc(F)c([C@H]4CCC(=O)NC4=O)c(F)c3)C2)CCN1[C@H]1CC[C@H](n2cc3cc(NC(=O)c4ccc5cc(C#N)cnn45)c(C(C)(C)O)cc3n2)CC1 [Example 308, 3-cyano-N-(2-((1S,4r)-4-((S)-4-(1-(4-((R)-2,6-dioxopiperidin-3-yl)-3,5-difluorophenyl)azetidin-3-yl)-2-methylpiperazin-1-yl)cyclohexyl)-6-(2-hydroxypropan-2-yl)-2H-indazol-5-yl)pyrrolo[1,2-b]pyridazine-7-carboxamide]
64 nM | 99% | 93% | 0.6 nM | – | – | CC(C)(O)c1cc2nn([C@H]3CC[C@H](N4CCN(C5CN(c6cc(F)c([C@H]7CCC(=O)NC7=O)c(F)c6)C5)CC4=O)CC3)cc2cc1NC(=O)c1ccc2cc(C#N)cnn12 [Example 335, 3-cyano-N-(2-((1R,4r)-4-(4-(1-(4-((R)-2,6-dioxopiperidin-3-yl)-3,5-difluorophenyl)azetidin-3-yl)-2-oxopiperazin-1-yl)cyclohexyl)-6-(2-hydroxypropan-2-yl)-2H-indazol-5-yl)pyrrolo[1,2-b]pyridazine-7-carboxamide]
